Laboratory results from patent US20030176479A1, “Use of selective EP4 receptor agonists for the treatment of liver failure, loss of patency of the ductus arteriosus, glaucoma or ocular hypertension” (priority 2002, published 2003).
pEC50, pIC50, pKd: −log10 of the molar value.

Legend:
[1] = target: T1, human EP1 receptor (Homo sapiens, UniProt P34995); test: Human EP1 receptor binding assay (3H-PGE2 displacement, 293S cell membranes); conditions: displacement of 3H-prostaglandin E2, 293S membranes, 1 hour at 25° C.
T1 construct: expressed in transfected cells
T1 sequence (P34995 1-402): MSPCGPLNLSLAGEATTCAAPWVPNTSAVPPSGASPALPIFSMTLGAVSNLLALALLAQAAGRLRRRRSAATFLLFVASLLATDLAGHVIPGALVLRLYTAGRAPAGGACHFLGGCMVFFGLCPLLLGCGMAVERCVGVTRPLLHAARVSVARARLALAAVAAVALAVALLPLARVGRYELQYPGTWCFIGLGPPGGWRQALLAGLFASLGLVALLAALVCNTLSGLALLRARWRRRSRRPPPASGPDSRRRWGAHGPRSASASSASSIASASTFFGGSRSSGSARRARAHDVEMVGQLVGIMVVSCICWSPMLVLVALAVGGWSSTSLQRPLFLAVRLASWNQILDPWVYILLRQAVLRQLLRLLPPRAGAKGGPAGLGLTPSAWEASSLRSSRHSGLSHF
Description: (§1) The compounds of Formula I or II, which are useful in the methods of the present invention, bind to the prostaglandin E2 type 4 receptor (EP4 receptor). The full-length coding sequence for the human EP1 receptor is made in accordance with the procedure in Funk et al., Journal of Biological Chemistry, 1993, 268, 26767-26772. The full-length rat EP2 receptor is made in accordance with the procedure in Nemoto et al., Prostaglandins and other Lipid Mediators, 1997, 54, 713-725. The full-length coding sequence for the human EP3 receptor is made in accordance with the procedure in Regan et al., British Journal of Pharmacology, 1994, 112, 377-385. The full-length coding sequence for the rat EP4 receptor is made in accordance with the procedure in Sando et al., Biochem. Biophys. Res. Comm. 1994, 200,1329-1333. These full-length receptors are used to prepare 293S cells expressing the human EP1, rat EP2, human EP3 or rat EP4 receptors.
(§2) Human EP1, Rat EP2, Human EP3, Rat EP4 Receptor Binding Assay
(§3) The full-length receptors described above are used to prepare 293S cells expressing the EP1, EP2, EP3, and EP4 receptors.
(§4) 293S cells expressing either the human EP1, rat EP2, human EP3 or rat EP4 prostaglandin E2 receptors are generated according to methods known to those skilled in the art. Typically, PCR (polymerase chain reaction) primers corresponding to the 5′ and 3′ ends of the published full length receptor are made according to the well known methods disclosed above and are used in an RT-PCR (reverse transcriptase-polymerase chain reaction) reaction using the total RNA from human kidney (for EP1), rat kidney (for EP2), human lung (for EP3), or rat kidney (EP4) as a source. PCR products are cloned by the TA overhang method into pCR2.1 (Invitrogen Corporation, Carlsbad, Calif.) and identity of the cloned receptor is confirmed by DNA sequencing. For expression of the rat EP2 receptor, the confirmed cDNA is subcloned into the mammalian expression vector PURpCl, a vector generated by subcloning the selectable marker for puromycin resistance into the mammalian expression vector pCl (Promega, Madison, Wis.)
(§5) 293S cells are transfected with either the cloned human EP1 or EP3 receptor in pcDNA3 by electroporation. Stable cell lines expressing either the human EP1 or EP3 receptor are established following selection of transfected cells with G418. 293S cells are transfected with the cloned rat EP2 receptor in PURpCi by lipid mediated transfection. Stable cell lines expressing the rat EP2 receptor are established following selection of transfected cells with puromycin. 293S cells are transfected with the cloned rat EP4 receptor in pcDNA3 by lipid mediated transfection. Stable cell lines expressing the rat EP4 receptor are established following selection of transfected cells with Geneticin® (Invitrogen, Carlsbad, Calif.).
(§6) Clonal cell lines expressing the maximal number of receptors are chosen following a whole cell ^3H-PGE2 binding assay using unlabeled PGE2 as a competitor.
(§7) Membrane Preparation: All operations are performed at 4° C. Transfected cells expressing either prostaglandin E2 type 1, type 2, type 3, or type 4 (EP1, EP2, EP3, or EP4, respectively) receptors are harvested and suspended to 2 million cells per ml in Buffer A [50 mM Tris-HCl (pH 7.4), 10 mM MgCI2, 1 mM EDTA, 1 mM Pefabloc peptide, (Boehringer Mannheim Corp., Indianapolis, Ind.), 10 uM Phosporamidon peptide, (Sigma, St. Louis, Mo.), 1 uM pepstatin A peptide, (Sigma, St. Louis, Mo.), 10 uM elastatinal peptide, (Sigma, St. Louis, Mo.), 100 uM antipain peptide, (Sigma, St. Louis, Mo.)]. The cells are lysed by sonification with a Branson Sonifier (Branson Ultrasonics Corporation, Danbury, Conn.) in 2 fifteen-second bursts. Unlysed cells and debris are removed by centrifugation at 100 ×g for 10 min. Membranes are then harvested by centrifugation at 45,000×g for 30 minutes. […]

[2] = target: T2, rat EP4 receptor (Rattus norvegicus, UniProt P43114); test: Rat EP4 receptor binding assay (3H-PGE2 displacement, 293S cell membranes); conditions: displacement of 3H-prostaglandin E2, 293S membranes, 1 hour at 25° C.
T2 construct: expressed in transfected cells
T2 sequence (P43114 whole entry): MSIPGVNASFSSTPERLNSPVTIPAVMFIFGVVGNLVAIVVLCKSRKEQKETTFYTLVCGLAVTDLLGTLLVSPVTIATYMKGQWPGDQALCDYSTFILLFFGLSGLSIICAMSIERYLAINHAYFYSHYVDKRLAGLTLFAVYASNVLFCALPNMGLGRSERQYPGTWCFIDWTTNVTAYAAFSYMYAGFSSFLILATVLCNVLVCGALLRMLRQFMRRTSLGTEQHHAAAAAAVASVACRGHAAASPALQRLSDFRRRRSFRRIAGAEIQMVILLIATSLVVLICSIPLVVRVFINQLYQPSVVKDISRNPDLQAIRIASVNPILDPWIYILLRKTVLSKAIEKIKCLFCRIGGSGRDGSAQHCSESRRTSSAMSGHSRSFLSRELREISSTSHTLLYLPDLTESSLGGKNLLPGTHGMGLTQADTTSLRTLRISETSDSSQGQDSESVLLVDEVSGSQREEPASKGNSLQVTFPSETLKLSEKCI
Description: as §1, §2, §3, §4, §5, §6, §7

[3] = target: T3, rat EP2 receptor (Rattus norvegicus, UniProt Q62928); test: Rat EP2 receptor binding assay (3H-PGE2 displacement, 293S cell membranes); conditions: displacement of 3H-prostaglandin E2, 293S membranes, 1 hour at 25° C.
T3 construct: The full-length rat EP2 receptor is made in accordance with the procedure in Nemoto et al; expressed in transfected cells
T3 sequence (Q62928 whole entry): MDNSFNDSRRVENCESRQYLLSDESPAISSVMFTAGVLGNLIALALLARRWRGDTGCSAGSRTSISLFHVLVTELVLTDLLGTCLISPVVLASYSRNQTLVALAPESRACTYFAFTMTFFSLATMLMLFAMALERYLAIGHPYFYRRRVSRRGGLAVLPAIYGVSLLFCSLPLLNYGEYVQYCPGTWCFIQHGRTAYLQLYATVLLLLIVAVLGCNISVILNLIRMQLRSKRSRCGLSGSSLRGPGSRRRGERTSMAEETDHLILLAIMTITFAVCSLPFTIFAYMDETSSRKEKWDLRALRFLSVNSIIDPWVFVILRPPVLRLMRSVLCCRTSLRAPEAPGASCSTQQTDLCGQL
Description: as §1, §2, §3, §4, §5, §6, §7

[4] = target: T4, human EP3 receptor (Homo sapiens, UniProt P43115); test: Human EP3 receptor binding assay (3H-PGE2 displacement, 293S cell membranes); conditions: displacement of 3H-prostaglandin E2, 293S membranes, 1 hour at 25° C.
T4 construct: expressed in transfected cells
T4 sequence (P43115 1-390): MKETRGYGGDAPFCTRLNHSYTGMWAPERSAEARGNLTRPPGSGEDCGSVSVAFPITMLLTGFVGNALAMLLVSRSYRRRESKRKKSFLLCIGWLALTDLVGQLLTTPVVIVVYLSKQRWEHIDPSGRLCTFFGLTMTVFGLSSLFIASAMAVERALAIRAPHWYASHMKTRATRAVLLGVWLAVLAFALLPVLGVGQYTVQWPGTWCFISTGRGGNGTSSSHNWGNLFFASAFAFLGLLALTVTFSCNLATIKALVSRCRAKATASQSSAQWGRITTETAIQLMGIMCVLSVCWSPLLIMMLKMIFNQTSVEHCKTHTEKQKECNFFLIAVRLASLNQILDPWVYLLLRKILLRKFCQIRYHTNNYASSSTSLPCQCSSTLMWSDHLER
Description: as §1, §2, §3, §4, §5, §6, §7

[5] = target: T2, rat EP4 receptor; test: Cyclic AMP elevation in 293S cell lines stably overexpressing recombinant rat EP4 receptors; type: cell-based; conditions: 293S cells expressing rat EP4, 1 mM IBMX, 12 minutes at 37° C.; read-out: EC50 in the cAMP (rat EP4) elevation assay
Description: Determination of Cyclic AMP Elevation in 293S Cell Lines Stably Overexpressing Recombinant Rat EP4 Receptors Assay
cDNA representing the complete open reading frame of the rat EP4 receptor is generated by reverse transcriptase polymerase chain reaction using oligonucleotide primers based on published sequences. The full length coding sequence for the rat EP4 receptor is made in accordance with the procedure in Sando et al., Biochem. Biophys. Res. Comm. 1994, 200, 1329-1333, and RNA from rat kidney (EP4) as templates. 293S cells are transfected with the cloned rat EP4 receptor in pcDNA3 by lipid mediated transfection. Stable cell lines expressing the rat EP4 receptor are established following selection of transfected cells with Geneticin® (Invitrogen Corporation, Carlsbad, Calif.).
(§8) Clonal cell lines expressing the maximal number of receptors are chosen following a whole cell ^3H-PGE2 binding assay using unlabeled PGE2 as a competitor. […] Constitutive expression of the receptor in parental 293-S cells is negligible. A stable cell line containing the rat EP4 receptor is grown in Dulbecco's Mosified Eagle Medium/F12 (DMEM/F12) containing 10% fetal bovine serum and G418 (500 μg/ml) to 80% confluency.
cAMP responses in the 293-S/EP4 lines are determined by detaching cells from culture flasks in 1 ml of calcium (Ca++) and magnesium (Mg++) deficient phosphate buffered saline (PBS) via vigorous pounding and then rinsing the cells with calcium (Ca++) and magnesium (Mg++) deficient phosphate buffered saline (PBS). The cells are resuspended in MEM (Minimum Essential Medium), 1% BSA (bovine serum albumin), 50 mM HEPES (N-[2-Hydroxyethyl]piperazine-N′-[2-ethanesulfonic acid]) at 37° C. The cell suspension is counted on a hemacytometer and diluted by adding MEM (Minimum Essential Medium) to a final concentration of 1×10^6 cells/ml, and adding 3-isobutyl-1-methylxanthine (IBMX) to a final concentration of 1 mM. 200 microliters of cell suspension is immediately aliquoted into individual tubes and incubated for 10 minutes, uncovered, at 37° C., 5% CO2, 95% relative humidity. The compound of Formula I or II to be tested in either dimethylsulfoxide (DMSO) or ethanol is then added to cells at 1:100 dilutions such that the final DMSO or ethanol concentration is 1%. Typically, the cells are treated with 6-8 different concentrations (in 1 log increments, such as those described below) of the compound of Formula I or II. Typical concentrations of the compound of Formula I or II in this assay are between 10^−5M to 10^−10M. For example, a six point compound dose response assay tests the compound of Formula I or II at concentrations of 10^−5M, 10^−6M, 10^−7M, 10^−8M, 10^−9M and 10^—10M. Immediately after adding the test compound, the tubes are covered, mixed by inverting two times, and incubated at 37° C. for 12 minutes. Samples are then lysed by incubation at 100° C. for 10 minutes and immediately cooled on ice for 5 minutes to approximately 4° C. Cellular debris is pelleted by centrifugation at 3500×g for 5 minutes at approximately 4° C., and cleared lysates are transferred to fresh tubes. cAMP concentrations are determined using a commercially available ^125I-cAMP radioimmunoassay (RIA) kit (NEK-033, Perkin-Elmer Life Sciences, Inc., Boston, Mass.). The cleared lysates are diluted 1:100 in cAMP RIA assay buffer (included in kit) and centrifuged again. 50 microliters of the resulting supernatant is transferred to a 12×75 mm glass tube and data is collected by scintillation counting using a Wallac Cobra II Gamma Counter (Perkin-Elmer Wallac, Inc., Gaithersburg, Md.). EC50 calculations are performed on a calculator using linear regression analysis on the linear portion of the dose response curves or using Data Fitter.

[6] = target: T2, rat EP4 receptor; test: Whole cell 3H-PGE2 binding, Scatchard analysis of 293S/EP4 transfectants; conditions: cell lines selected for compound screening
Experimental: as §8

SMILES	pIC50 [1]	pIC50 [2]	pIC50 [3]	pIC50 [4]	pEC50 [5]	pKd [6]
O=C1CCC(CCC(O)Cc2ccc(F)cc2)N1CCCCCCc1nn[nH]n1 (stereo not drawn) [Example 5, 5-[4-(4-Fluoro-phenyl)-3-hydroxy-butyl]-1-[6-(2H-tetrazol-5-yl)-hexyl]-pyrrolidin-2-one]	< 5.49	6.29	< 5.49	< 5.49	–	–
O=C(O)CCCCCCN1C(=O)CC[C@@H]1CCC(O)Cc1cccc(Oc2ccccc2)c1 (stereo partly drawn) [Example 10, 7-{2S-[3-Hydroxy-4-(3-phenoxy-phenyl)-butyl]-5-oxo-pyrrolidin-1-yl}-heptanoic acid]	–	6.27	–	–	–	–
CCCCC[C@H](O)/C=C/[C@H]1[C@H](O)CC(=O)[C@@H]1C/C=C\CCCC(=O)O [PGE2, Prostaglandin E2]	–	–	–	–	–	8.54

More lines, now with the values ahead:

pIC50 [1]	pIC50 [2]	pIC50 [3]	pIC50 [4]	pEC50 [5]	pKd [6]	SMILES
–	7.02	< 5.49	–	6.70	–	O=C1CCC(CCC(O)Cc2cccc(F)c2)N1CCCCCCc1nn[nH]n1 (stereo not drawn) [Example 7, 5-[4-(3-Fluoro-phenyl)-3-hydroxy-butyl]-1-[6-(2H-tetrazol-5-yl)-hexyl]-pyrrolidin-2-one]
–	7.55	< 5.49	–	7.61	–	O=C1CC[C@H](CC[C@@H](O)Cc2cccc(Cl)c2)N1CCCCCCc1nn[nH]n1 [Example 8, 5S-[4-(3-Chloro-phenyl)-3R-hydroxy-butyl]-1-[6-(2H-tetrazol-5-yl)-hexyl]-pyrrolidin-2-one]
